Data published in PubChem BioAssay AID2060610 (Molecular Pharmacology Branch, DTP, NCI, 2025).
Values joined by “and” are separate entries in the source; they are usually repeats but may differ in a detail not shown here. Identical values can stand only once.

System: 616215-338-R-J1-PDC complex spheroids, viability % test/control
Assay: Anticancer human tumor 616215-338-R-J1-PDC patient-derived colon adenocarcinoma cell line growth inhibition [CLK]
Conditions: for viability, T/C: stronger effect = lower value; active = viability on the fitted dose curve at most 10% of control; inactive = the rest
Summary of the method: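 Patient-derived tumor cells grown as complex spheroids with HUVEC endothelial cells and mesenchymal stem cells, treated with drug combinations. Concentrations descend in half-log steps from near clinical Cmax, or from 10 microM if Cmax unknown.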

[1] = curve of first compound, second compound 0.0316 µM
[2] = curve of first compound, second compound 0.1 µM
[3] = curve of first compound, second compound 0.316 µM
[4] = curve of first compound, second compound 1 µM
[5] = curve of first compound, second compound 3.16 µM
[6] = curve of first compound, second compound 10 µM
[7] = second compound 0.0316 µM, first compound 0.0316 µM
[8] = second compound 0.0316 µM, first compound 0.1 µM
[9] = second compound 0.0316 µM, first compound 0.316 µM
[10] = second compound 0.0316 µM, first compound 1 µM
[11] = second compound 0.0316 µM, first compound 3.16 µM
[12] = second compound 0.0316 µM, first compound 10 µM
[13] = second compound 0.1 µM, first compound 0.0316 µM
[14] = second compound 0.1 µM, first compound 0.1 µM
[15] = second compound 0.1 µM, first compound 0.316 µM
[16] = second compound 0.1 µM, first compound 1 µM
[17] = second compound 0.1 µM, first compound 3.16 µM
[18] = second compound 0.1 µM, first compound 10 µM
[19] = second compound 0.316 µM, first compound 0.0316 µM
[20] = second compound 0.316 µM, first compound 0.1 µM
[21] = second compound 0.316 µM, first compound 0.316 µM
[22] = second compound 0.316 µM, first compound 1 µM
[23] = second compound 0.316 µM, first compound 3.16 µM
[24] = second compound 0.316 µM, first compound 10 µM
[25] = second compound 1 µM, first compound 0.0316 µM
[26] = second compound 1 µM, first compound 0.1 µM
[27] = second compound 1 µM, first compound 0.316 µM
[28] = second compound 1 µM, first compound 1 µM
[29] = second compound 1 µM, first compound 3.16 µM
[30] = second compound 1 µM, first compound 10 µM
[31] = second compound 3.16 µM, first compound 0.0316 µM
[32] = second compound 3.16 µM, first compound 0.1 µM
[33] = second compound 3.16 µM, first compound 0.316 µM
[34] = second compound 3.16 µM, first compound 1 µM
[35] = second compound 3.16 µM, first compound 3.16 µM
[36] = second compound 3.16 µM, first compound 10 µM
[37] = second compound 10 µM, first compound 0.0316 µM
[38] = second compound 10 µM, first compound 0.1 µM
[39] = second compound 10 µM, first compound 0.316 µM
[40] = second compound 10 µM, first compound 1 µM
[41] = second compound 10 µM, first compound 3.16 µM
[42] = second compound 10 µM, first compound 10 µM
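Note: spheroids exposed to agents for 7 days.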
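Throughout, for viability, T/C: 100% = DMSO vehicle wells.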

Nc1ccn(C2OC(CO)C(O)C2(F)F)c(=O)n1 (stereo unspecified) + CN1CCN(c2cc(C(=O)Nc3cc4cc(-c5cnn(C)c5)ccc4cn3)ccn2)CC1
active: viability, T/C [25] 0.1% | viability, T/C [26] 0.13% | viability, T/C [27] 2.94% | viability, T/C [28] 0.12% | viability, T/C [29] 1.83% | viability, T/C [30] 1.85% | viability, T/C [31] 0.1% | viability, T/C [32] 0.13% | viability, T/C [33] 0.14% | viability, T/C [34] 0.09% | viability, T/C [35] 0.1% | viability, T/C [36] 0.11% | viability, T/C [37] 0.15% | viability, T/C [38] 1.73% | viability, T/C [39] 0.16% | viability, T/C [40] 2% | viability, T/C [41] 3.33% | viability, T/C [42] 0.18%
inactive: viability, T/C [7] 15.5% | viability, T/C [8] 10.3% | viability, T/C [9] 14.1% | viability, T/C [10] 13.6% | viability, T/C [11] 14.3% | viability, T/C [12] 12.7% | viability, T/C [13] 18% | viability, T/C [14] 14.5% | viability, T/C [15] 14% | viability, T/C [16] 14.3% | viability, T/C [17] 17% | viability, T/C [18] 18% | viability, T/C [19] 13.8% | viability, T/C [20] 11% | viability, T/C [21] 13.8% | viability, T/C [22] 10.6% | viability, T/C [23] 12.1% | viability, T/C [24] 13.3%
< 31.6 nM: IC50 [1] | IC50 [2] | IC50 [3] | IC50 [4] | IC50 [5] | IC50 [6]

C#Cc1c(F)ccc2cc(O)cc(-c3ncc4c(N5CC6CCC(C5)N6)nc(OCC56CCCN5CC(F)C6)nc4c3F)c12 (stereo unspecified)
inactive: viability, T/C (compound 0.0316 µM) 95.4% and 102% | viability, T/C (compound 0.1 µM) 96.2% and 91.8% | viability, T/C (compound 0.316 µM) 100% and 104% | viability, T/C (compound 1 µM) 119% and 114% | viability, T/C (compound 3.16 µM) 133% and 98.2% | viability, T/C (compound 10 µM) 83.3% and 65.1%
> 10000 nM: IC50 (curve of compound)

COc1cccc2c1C(=O)c1c(O)c3c(c(O)c1C2=O)CC(O)(C(=O)CO)CC3OC1CC(N)C(O)C(C)O1 (stereo unspecified) + CN1CCN(c2cc(C(=O)Nc3cc4cc(-c5cnn(C)c5)ccc4cn3)ccn2)CC1
inactive: viability, T/C [7] 82.5% | viability, T/C [8] 42.5% | viability, T/C [9] 51.5% | viability, T/C [10] 41.8% | viability, T/C [11] 0.43% | viability, T/C [13] 71% | viability, T/C [14] 44.8% | viability, T/C [15] 42.5% | viability, T/C [16] 37.9% | viability, T/C [17] 0.52% | viability, T/C [19] 27.6% | viability, T/C [20] 32.9% | viability, T/C [21] 21.8%
active: viability, T/C [12] 0.14% | viability, T/C [18] 0.13% | viability, T/C [22] 2.19% | viability, T/C [23] 0.13% | viability, T/C [24] 0.13% | viability, T/C [25] 0.14% | viability, T/C [26] 0.17% | viability, T/C [27] 0.16% | viability, T/C [28] 0.1% | viability, T/C [29] 0.09% | viability, T/C [30] 0.11% | viability, T/C [31] 0.09% | viability, T/C [32] 0.12% | viability, T/C [33] 0.11% | viability, T/C [34] 0.09% | viability, T/C [35] 0.12% | viability, T/C [36] 0.71% | viability, T/C [37] 0.1% | viability, T/C [38] 0.12% | viability, T/C [39] 0.46% | viability, T/C [40] 0.13% | viability, T/C [41] 0.16% | viability, T/C [42] 0.17%
< 31.6 nM: IC50 [3] | IC50 [4] | IC50 [5] | IC50 [6]
142 nM: IC50 [2]
211 nM: IC50 [1]
